Measured values published in US10947188B2, “Small molecule ferroptosis inducers” (THE TRUSTEES OF COLUMBIA UNIVERSITY IN THE CITY OF NEW YORK, priority 2016, dated 2021).
Converted amounts (≈) assume the structure as drawn.

Legend:
HT-1080 cells [1] = experiment: Cell viability assay (Alamar Blue), lethal compounds with or without modulators; type: cell-based; settings: HT-1080 cells; for effect on FIN56 lethality: modulator cotreatment or pretreatment; for effect of ferroptosis inhibitors (α-tocopherol, deferoxamine) on lethality: cotreatment
Procedure: 1,000 cells per 36 μl were seeded in each well in 384-well plates. Lethal compounds were dissolved, and a twofold, 12-point dilution series was prepared in DMSO. Compound solutions were further diluted with media at 1:25, and 4 μl per well of the diluted solutions was added to cell cultures immediately after cells were seeded. […] When other cell-death-modulating compounds (100 nM sodium selenite, 1 μM cerivastatin, 100 μg/mL mevalonic acid) were used in cotreatments, they were supplemented to cell culture for 24 h before lethal compounds were added to cell culture, after which cells were further incubated for 24 h at 37° C. under 5% CO2. On the day of the viability measurement, we added 10 μl per well of 50% Alamar Blue diluted in media (Life Technologies) and further incubated the cells at 37° C. for 6 h. Fluorescence intensity (excitation/emission: 530/590) was measured with a Victor 3 plate reader (PerkinElmer), and the normalized viability was calculated as VL=(IL−I0)/(IV−I0), where VL, I0, IV, and IL are the normalized viability and the raw fluorescence intensities from the wells containing media, cells treated with a vehicle (negative control), and cells with the lethal compound (L), respectively. When the effect of a chemical modulator (M) on L was calculated, we instead used the equation VL|M=(IM,L−I0)/(IM,V−I0), where VL|M, IM,L and IM,V are the normalized viability, and fluorescence intensity from cells treated with […], respectively. The viability was typically measured in biological triplicate unless otherwise specified. A representative dose-response curve, the mean and standard error of normalized viability from one replicate were plotted. […]

HT-1080 cells [2] = experiment: Lethality of commercially available CIL41/70 structural analogs; type: cell-based; settings: tested once in technical triplicates; for EC50: Homo sapiens
In short: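 HT-1080 cells (1,000/well) dosed at seeding with twofold 12-point dilutions of lethal compounds. Viability read by Alamar Blue fluorescence (530/590 nm) after 6 h, normalized to media and vehicle wells. Analogs tested once, in technical triplicate.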

Structure (SMILES) | EC50 (HT-1080 cells [2]) [µg/mL] | further results
CNc1ccc2oc(C[C@H]3O[C@@]4(CC[C@H]3C)O[C@H]([C@H](C)C(=O)c3ccc[nH]3)[C@H](C)C[C@H]4C)nc2c1C(=O)O [A23187] |  | effect on FIN56 lethality (HT-1080 cells [1]): enhanced FIN56 lethality
N[C@@H]1CCCN(c2c(/C=C3\SC(=O)NC3=O)cccc2-c2ccccc2)C1 [AZD-1208] |  | effect of ferroptosis inhibitors (α-tocopherol, deferoxamine) on lethality (HT-1080 cells [1]): the lethality was not suppressed by αToc
O=C(O)CN(CC(=O)O)c1ccccc1OCCOc1ccccc1N(CC(=O)O)CC(=O)O [BAPTA] |  | effect on FIN56 lethality (HT-1080 cells [1]): suppressed it
N/C(Cc1ccc(Cl)cc1Cl)=N\OC(=O)CCCOc1ccccc1 [CB138] | > 20 | 
Cc1ccc(CC(=O)O/N=C(\N)Cc2ccc([N+](=O)[O-])cc2)cc1 [CB139] | > 20 | 
CCC(Oc1ccccc1)C(=O)O/N=C(\N)Cc1ccc(Cl)cc1Cl (stereo not shown) [CB140] | 8.56 (≈ 22.5 µM) | 
N/C(Cc1ccc([N+](=O)[O-])cc1)=N\OC(=O)CSc1ccccc1 [CB141] | > 20 | 
Cc1ccc(CC(=O)O/N=C(\N)Cc2ccc(Cl)cc2Cl)cc1 [CB142] | > 20 | 
COc1ccc(CC(=O)O/N=C(\N)Cc2ccc(Cl)c(Cl)c2)cc1OC [CB143] | > 20 | 
N/C(Cc1ccc([N+](=O)[O-])cc1)=N\OC(=O)COc1ccc(Cl)cc1Br [CB144] | > 20 | 
CC(=O)O/N=C(N)\C(=N/Nc1ccccc1)[N+](=O)[O-] [CB145] | > 20 | 
CC(=O)O/N=C(/N)Cn1nc(C)c([N+](=O)[O-])c1C [CB146] | > 20 | 
Cc1nn(C/C(N)=N/OC(=O)C23CC4CC(CC(C4)C2)C3)c(C)c1[N+](=O)[O-] [CB147] | 4.88 (≈ 13 µM) | 
CCC(=O)O/N=C(\N)Cn1nc(C)c([N+](=O)[O-])c1C [CB148] | > 20 | 
Cc1ccc(Cl)cc1N1CCN(C/C(N)=N/OC(=O)CCC(=O)NC2CCCCC2)CC1 [CD1] | > 20 | 
CN1CCCN(C(=O)c2cccc(-c3ccc(/C=C4/C(=O)Nc5ccc(Cl)cc54)o3)c2)CC1 [CX-6258] |  | effect of ferroptosis inhibitors (α-tocopherol, deferoxamine) on lethality (HT-1080 cells [1]): the lethality was not suppressed by αToc
O=C(O)CN(CCOCCOCCN(CC(=O)O)CC(=O)O)CC(=O)O [EGTA, Ethyleneglycol-O,O′-bis(2-aminoethyl)-N,N,N′,N′-tetraacetic acid] |  | effect on FIN56 lethality (HT-1080 cells [1]): suppressed it
COc1ccc(/C=C(\C#N)C(=O)O/N=C2\CCCCCN2)cc1 [EN1] | > 20 | 
COc1ccc(/C=C/C(=O)O/N=C2\CCCCCN2)cc1OC [EN2] | 10.5 (≈ 33 µM) | 

Structure (SMILES) | EC50 (HT-1080 cells [2]) [µg/mL] | further results
O=C(O/N=C1\CCCCCN1)C(Cl)Cl [EN3] | > 20 | 
CC(Cl)(Cl)C(=O)O/N=C1\CCCCCN1 [EN4] | > 20 | 
Cc1ccccc1NC(=O)C/C(N)=N/OC(=O)C1CCCN1C(=O)c1ccco1 (stereo not shown) [EN5] | > 20 | 
N/C(=N\OC(=O)C1CCCN1C(=O)c1cccs1)C(c1ccccc1)c1ccccc1 (stereo not shown) [EN6] | > 20 | 
N/C(COc1ccccc1)=N\OC(=O)C1CCCN1C(=O)c1ccco1 (stereo not shown) [EN7] | > 20 | 
N/C(=N\OC(=O)Cc1ccccc1F)C12CC3CC(CC(C3)C1)C2 [EN8] | > 20 | 
N/C(CC(=O)NC1CCCCC1)=N\OC(=O)C1CCCN1C(=O)c1cccs1 (stereo not shown) [EN9] | > 20 | 
Cc1cccc(NC(=O)C/C(N)=N/OC(=O)C2CCCN2C(=O)c2ccco2)c1C (stereo not shown) [EN10] | > 20 | 
Cc1cc(C)cc(C(=O)NCC(=O)O/N=C(\N)CC(=O)Nc2ccc(Cl)cc2)c1 [EN11] | > 20 | 
CC(C)=CCC/C(C)=C/CC/C(C)=C/COP(=O)(O)OP(=O)(O)O.N.N.N [FPP, farnesyl-PP] |  | effect on FIN56 lethality (HT-1080 cells [1]): suppressed the lethality of FIN56
NC(/C=C/c1cc(C(F)(F)F)cc(C(F)(F)F)c1)=N\OC(=O)/C=C/c1ccccc1 [MB1] | > 20 | 
COc1ccc(OCC(N)=NOC(=O)CON=C(C)c2ccc(Cl)cc2)cc1 [MB2] |  | EC50 of CIL41/70 and structural analogs (lethality) (HT-1080 cells [2]): MB2 (>20 ug/mL)
CC(=NOCC(=O)ON=C(N)COc1cccc(Cl)c1)c1ccc(Cl)cc1 [MB3] |  | EC50 of CIL41/70 and structural analogs (lethality) (HT-1080 cells [2]): MB3 (>20 ug/mL)
CC(=NOCC(=O)ON=C(N)COc1ccc(Cl)cc1Cl)c1ccc(Cl)cc1 [MB4] |  | EC50 of CIL41/70 and structural analogs (lethality) (HT-1080 cells [2]): MB4 (>20 ug/mL)
CC(=O)O/N=C(\N)Cc1csc2ccc(Cl)cc12 [MB5] | > 20 | 
CC(C)(C)C(=O)O/N=C(\N)Cc1ccc(-c2csnn2)cc1 [MB6] | 6.48 (≈ 20.4 µM) | 
N/C(Cc1ccc(-c2csnn2)cc1)=N\OC(=O)C1CC1 [MB7] | > 20 | 
CC(=O)O/N=C(\N)Cc1ccc(-c2csnn2)cc1 [MB8] | > 20 | 
